Assay results taken from patent publication US8871755B2, “Alkene azetidine derivatives as sphingosine 1-phosphate (S1P) receptor modulators” (Allergan, Inc., priority 2013, dated 2014).

Target: T1, human S1P1 receptor (Homo sapiens, UniProt P21453)
T1 construct: expressed in transfected cells; membranes were used
Test: GTP γ35S binding assay for S1P1 activity
Assay type: biochemical
Details: activity potency from GTP γ35S binding; membranes of cells stably expressing the S1P1 receptor; 30 min at 25° C.
Description: Compounds were synthesized and tested for S1P1 activity using the GTP γ^35S binding assay. These compounds may be assessed for their ability to activate or block activation of the human S1P1 receptor in cells stably expressing the S1P1 receptor. […] binding was measured in the medium containing (mM) HEPES 25, pH 7.4, MgCl2 10, NaCl 100, dithitothreitol 0.5, digitonin 0.003%, 0.2 nM GTP γ^35S, and 5 μg membrane protein in a volume of 150 μl. Test compounds were included in the concentration range from 0.08 to 5,000 nM unless indicated otherwise. Membranes were incubated with 100 μM 5′-adenylylimmidodiphosphate for 30 min, and subsequently with 10 μM GDP for 10 min on ice. Drug solutions and membrane were mixed, and then reactions were initiated by adding GTP γ^35S and continued for 30 min at 25° C. Reaction mixtures were filtered over Whatman GF/B filters under vacuum, and washed three times with 3 mL of ice-cold buffer (HEPES 25, pH7.4, MgCl2 10 and NaCl 100). Filters were dried and mixed with scintillant, and counted for ^35S activity using a […]. Agonist-induced GTP γ^35S binding was obtained by subtracting that in the absence of agonist. Binding data were analyzed using a non-linear regression method. In case of antagonist assay, the reaction mixture contained 10 nM S1P in the presence of test antagonist at concentrations ranging from 0.08 to 5000 nM.

T1 sequence (P21453 whole entry): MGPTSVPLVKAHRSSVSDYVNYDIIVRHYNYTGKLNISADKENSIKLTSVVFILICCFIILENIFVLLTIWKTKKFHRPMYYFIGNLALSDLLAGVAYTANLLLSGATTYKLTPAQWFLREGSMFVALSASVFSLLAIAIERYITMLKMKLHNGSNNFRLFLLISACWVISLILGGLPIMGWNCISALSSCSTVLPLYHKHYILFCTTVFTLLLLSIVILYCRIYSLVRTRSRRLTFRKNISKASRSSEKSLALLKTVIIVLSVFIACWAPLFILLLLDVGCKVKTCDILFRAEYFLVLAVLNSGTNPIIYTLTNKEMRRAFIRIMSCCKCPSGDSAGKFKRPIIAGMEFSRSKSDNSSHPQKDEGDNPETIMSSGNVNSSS

EC50 | Compound
4.21 nM | Cc1ccc(/C=C(\CCCOc2ccc(CN3CC(C(=O)O)C3)cc2)c2cc(F)cc(F)c2)cc1C [Compound 6, 1-(4-{[(4E)-4-(3,5-Difluorophenyl)-5-(3,4-dimethylphenyl)pent-4-en-1-yl]oxy}benzyl)azetidine-3-carboxylic acid]
27.9 nM | Cc1ccc(/C=C(\CCCOc2ccc(CN3CC(C(=O)O)C3)cc2)c2cccc(Cl)c2)cc1C [Compound 5, 1-(4-{[(4E)-4-(3-Chlorophenyl)-5-(3,4-dimethylphenyl)pent-4-en-1-yl]oxy}benzyl)azetidine-3-carboxylic acid]
158 nM | Cc1ccc(/C=C(\CCC[S+]([O-])c2ccc(CN3CC(C(=O)O)C3)cc2)c2cc(F)cc(F)c2)cc1C (stereo not drawn) [Compound 7]
652 nM | Cc1ccc(/C=C(\CCCCSc2ccc(CN3CC(C(=O)O)C3)cc2)c2cc(F)cc(F)c2)cc1C [Compound 4, 1-(4-{[(5E)-5-(3,5-difluorophenyl)-6-(3,4-dimethylphenyl)hex-5-en-1-yl]sulfanyl}benzyl)azetidine-3-carboxylic acid]
480 nM | Cc1ccc(/C=C(\CCCOc2ccc(CN3CC(C(=O)O)C3)cc2)c2cccc(F)c2F)cc1C [Compound 1, 1-(4-{[(4E)-4-(2,3-Difluorophenyl)-5-(3,4-dimethylphenyl)pent-4-en-1-yl]oxy}benzyl)azetidine-3-carboxylic acid]
36 nM | Cc1ccc(C=C(CCCOc2ccc(CN3CC(C(=O)O)C3)cc2)c2ccsc2)cc1C [1-(4-{[5-(3,4-dimethylphenyl)-4-(3-thienyl)pent-4-en-1-yl]oxy}benzyl)azetidine-3-carboxylic acid]
